Our source for the MIC values is ChEMBL document CHEMBL1137647, “vanD and vanG-like gene clusters in a Ruminococcus species isolated from human bowel flora” (2007).

This assay relates to Ruminococcus sp. Kind of assay: Antimicrobial activity against Ruminococcus sp. CCRI-16110 containing vanD-like gene by agar dilution method. In kind it is functional. (In general: Agar dilution tests growth on a series of plates holding different concentrations.)

A word on the MIC: it is the lowest concentration that inhibits growth of the organism. In turn, `Cc1ncc([N+](=O)[O-])n1CCO` [METRONIDAZOLE] showed an MIC of under 0.125 µg/mL.
As for `CN[C@H](CC(C)C)C(=O)N[C@H]1C(=O)N[C@@H](CC(N)=O)C(=O)N[C@H]2C(=O)N[C@H]3C(=O)N[C@H](C(=O)N[C@H](C(=O)O)c4cc(O)cc(O)c4-c4cc3ccc4O)[C@H](O)c3ccc(c(Cl)c3)Oc3cc2cc(c3O[C@@H]2O[C@H](CO)[C@@H](O)[C@H](O)[C@H]2O[C@H]2C[C@](C)(N)[C@H](O)[C@H](C)O2)Oc2ccc(cc2Cl)[C@H]1O` [VANCOMYCIN], the minimal inhibitory concentration (MIC) was over 256 µg/mL.
